Data on 46 compounds can be found in patent US12492210B2, “Tricyclic compounds and their use” (HUTCHISON MEDIPHARMA LIMITED, priority 2019, dated 2025).

Assay [1] relates to p-RSK (Thr359) in colo205 cells. The experiment in a line: p-RSK (Thr359) Acumen Assay in Colo205. In kind it is cell-based. The following applies: Homo sapiens, COLO 205, 1 hour compound incubation, read-out: Example 19 IC50. A digest of the protocol:
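Colo205 cells (4000/well, seeded overnight in 10% FBS) were exposed 1 hour at 37° C to compound added from a 3–0.001 μM dilution series in 5% DMSO. Cells were then fixed, permeabilised and immunostained for p-RSK Thr359, with PI counterstain. Acumen cytometry gave the percentage of positive cells, normalised to untreated wells and 3 uM GDC0994 wells, for the IC50 fit.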

A further assay addresses T1, MAPK1(ERK2) enzyme (Homo sapiens, UniProt P28482).
T1 construct: purchased Invitrogen PV3313
As to the kind of experiment: Z-Lyte Kinase Assay of ERK2. In kind it is biochemical. The note with it: read-out: Example 18 IC50. The method, boiled down: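 FRET-based Z-LYTE assay using ERK2 kinase with Ser/Thr3 peptide; compound tested at 0.00046–1 μM final in 2% DMSO. Kinase reaction ran 1 h at 25-30° C, followed by 1 h development. The coumarin/fluorescein emission ratio (445/520 nm) gave % phosphorylation, and IC50 was fitted from inhibition relative to uninhibited control.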

T1 sequence (P28482 whole entry): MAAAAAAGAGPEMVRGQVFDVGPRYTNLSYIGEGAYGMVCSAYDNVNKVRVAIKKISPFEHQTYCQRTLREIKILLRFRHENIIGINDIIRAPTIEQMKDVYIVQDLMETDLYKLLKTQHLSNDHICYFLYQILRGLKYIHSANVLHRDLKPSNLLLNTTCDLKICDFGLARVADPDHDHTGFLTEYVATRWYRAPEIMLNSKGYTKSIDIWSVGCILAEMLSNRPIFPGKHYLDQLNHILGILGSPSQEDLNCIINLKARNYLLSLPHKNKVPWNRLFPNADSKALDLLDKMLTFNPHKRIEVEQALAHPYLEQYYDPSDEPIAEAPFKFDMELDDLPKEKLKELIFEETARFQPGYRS

For `C[C@H]1Cn2cc(-c3ccnc(Nc4ccnn4C)c3)cc2-c2nnc(C(F)(F)c3ccccc3Cl)n21` [Compound 91], the results for the IC50 (in assay [1]; at MAPK1(ERK2) enzyme) were ≤ 100 nM and 5 to 10 nM, respectively.
Take `C[C@H]1Cn2cc(-c3ccnc(Nc4ccnn4C(F)F)n3)nc2-c2nnc(C(F)(F)c3ccccc3Cl)n21` [Compound 227]: the half-inhibitory concentration (IC50) in assay [1] was ≤ 100 nM; on MAPK1(ERK2) enzyme, ≤ 5 nM.
For `C[C@H]1Cn2cc(-c3cc(Nc4ccnn4C)ncc3Cl)cc2-c2nnc(C(F)(F)n3cc(Cl)cn3)n21` [Compound 157], the IC50 in assay [1] was ≤ 100 nM; on MAPK1(ERK2) enzyme, 5 to 10 nM.
On to `Cc1cnc(Nc2ccnn2C)cc1-c1cc2n(c1)C[C@H](F)Cn1c-2nnc1C(F)(F)C(F)(F)F` [Compound 75], for which the IC50 in assay [1] is > 100 nM; at MAPK1(ERK2) enzyme, ≤ 5 nM.
Regarding `Cn1nccc1Nc1cc(-c2cc3n(c2)C[C@H](CF)n2c-3nnc2C(F)(F)c2ccnn2C)c(Cl)cn1` [Compound 154], the IC50 is ≤ 100 nM in assay [1] and ≤ 5 nM on MAPK1(ERK2) enzyme.
For `Cc1cnc(Nc2ccnn2C)nc1-c1cn2c(n1)-c1nnc(C(F)(F)c3ccccc3Cl)n1[C@H](CF)C2` [Compound 224] the same measures were ≤ 100 nM and ≤ 5 nM.
With `Cn1nccc1Nc1cc(-c2cc3n(c2)CCCn2c-3nnc2N2CCc3ccccc32)c(Cl)cn1` [Compound 53, 5-Chloro-4-(3-(indolin-1-yl)-6,7-dihydro-5H-pyrrolo[1,2-a][1,2,4]triazolo[3,4-c][1,4]diazepin-10-yl)-N-(1-methyl-1H-pyrazol-5-yl)pyridin-2-amine], the IC50 in assay [1] was > 100 nM; at MAPK1(ERK2) enzyme it was 5 to 10 nM.
Turning to `Cn1nccc1Nc1cc(-c2cc3n(c2)CCCn2c-3nnc2C2(C(F)F)CCCC2)c(Cl)cn1` [Compound 81], the half-maximal inhibitory concentration (IC50) in assay [1] is ≤ 100 nM; at MAPK1(ERK2) enzyme, ≤ 5 nM.
The like results for `Cn1nccc1Nc1ncc(F)c(-c2cc3n(c2)C[C@H](CF)n2c-3nnc2C(F)(F)c2ccccc2F)n1` [Compound 148] were, in that order, ≤ 100 nM and 5 to 10 nM.
The like results for `Cn1nccc1Nc1cc(-c2cc3n(c2)C[C@H](CF)n2c-3nnc2C(F)(F)c2ccccc2)c(Cl)cn1` [Compound 137] were, in that order, ≤ 100 nM and > 10 nM.
Consider `Cn1nccc1Nc1cc(-c2cc3n(c2)CCCn2c(Cn4cc(Cl)cn4)nnc2-3)c(Cl)cn1` [Compound 73], for which the IC50 in assay [1] is > 100 nM; on MAPK1(ERK2) enzyme, ≤ 5 nM.
As to `Cn1nccc1Nc1cc(-c2cc3n(c2)CC2(COC2)Cn2c-3nnc2C2(C(F)(F)F)CCC2)c(Cl)cn1` [Compound 307], the IC50 in assay [1] is ≤ 100 nM; on MAPK1(ERK2) enzyme, ≤ 5 nM.
For `Cc1cnc(Nc2ccnn2CCO)nc1-c1cc2n(c1)C[C@H](C)n1c-2nnc1C(F)(F)c1ccccc1F` [Compound 293] the same measures were ≤ 100 nM and 5 to 10 nM.
For `Cc1cnc(Nc2ccnn2C)cc1-c1cc2n(c1)C[C@H](CF)n1c-2nnc1C(F)(F)c1cc(F)cc(F)c1` [Compound 182] the same measures were > 100 nM and 5 to 10 nM.
For `Cc1cnc(Nc2ccnn2C)nc1-c1cc2n(c1)CC1(CC1)n1c-2nnc1C1(C(F)(F)F)CCC1` [Compound 250] the same measures were ≤ 100 nM and ≤ 5 nM.
`Cc1cnc(Nc2ccnn2CCCO)nc1-c1cc2n(c1)C[C@H](C)n1c-2nnc1C(F)(F)c1ccccc1F` [Compound 297]: the values for the IC50 (in assay [1]; on MAPK1(ERK2) enzyme) were ≤ 100 nM and > 10 nM, respectively.
For the compound `Cn1nccc1Nc1cc(-c2cc3n(c2)C[C@H](Cc2ccccc2)n2c-3nnc2C2(C(F)(F)F)CCC2)c(Cl)cn1` [Compound 210], the 50% inhibitory concentration (IC50) in assay [1] is > 100 nM; at MAPK1(ERK2) enzyme, > 10 nM.
For the compound `Cn1nccc1Nc1cc(-c2cc3n(c2)C[C@H](CF)n2c-3nnc2C(F)(F)c2ccccc2Cl)c(F)cn1` [Compound 192], the IC50 was ≤ 100 nM in assay [1] and > 10 nM at MAPK1(ERK2) enzyme.
The like results for `Cn1nccc1Nc1cc(-c2cc3n(c2)C[C@H](CF)n2c-3nnc2C(F)(F)c2ncco2)c(Cl)cn1` [Compound 110] were, in that order, > 100 nM and ≤ 5 nM.
Turning to `Fc1ccccc1OCc1nnc2n1CCCn1cc(-c3cc(NC4CC4)ncc3C(F)(F)F)cc1-2` [Compound 252], the values for the IC50 (in assay [1]; on MAPK1(ERK2) enzyme) were > 100 nM and > 10 nM, respectively.
For `Cn1nccc1Nc1ncc(F)c(-c2cc3n(c2)C[C@H](CF)n2c-3nnc2C(F)(F)c2ccccc2)n1` [Compound 98], the IC50 in assay [1] is ≤ 100 nM; at MAPK1(ERK2) enzyme it was ≤ 5 nM.
The like results for `Cn1nccc1Nc1cc(-c2cc3n(c2)CCCn2c(COc4ccccc4F)nnc2-3)c(C(F)(F)F)cn1` [Compound 272] were, in that order, ≤ 100 nM and > 10 nM.
The like results for `Cn1nccc1Nc1cc(-c2cc3n(c2)CC(F)(F)Cn2c-3nnc2C2(C(F)(F)F)CC2)c(Cl)cn1` [Compound 140] were, in that order, ≤ 100 nM and ≤ 5 nM.
For `Cn1nccc1Nc1cc(-c2cc3n(c2)C[C@H](CF)n2c-3nnc2C2(F)CC2)c(Cl)cn1` [Compound 56] the same measures were ≤ 100 nM and ≤ 5 nM.
Regarding `COc1cc(Nc2cc(-c3cc4n(c3)CCCn3c-4nnc3C3(C(F)(F)F)CCC3)c(Cl)cn2)n(C)n1` [Compound 269], the IC50 in assay [1] was > 100 nM; at MAPK1(ERK2) enzyme, 5 to 10 nM.
Consider `Cn1nccc1Nc1nccc(-c2cc3c4nnc(Cc5cccc(F)c5)n4ccn3c2)n1` [Compound 282], for which the IC50 in assay [1] was > 100 nM; at MAPK1(ERK2) enzyme, ≤ 5 nM.
As for `Cn1nccc1Nc1nccc(-c2cc3n(c2)C[C@H](CF)n2c-3nnc2C(F)(F)c2ccccc2F)n1` [Compound 100], the IC50 in assay [1] was ≤ 100 nM; on MAPK1(ERK2) enzyme it was ≤ 5 nM.
On to `Cc1cnc(Nc2ccnn2C2COC2)nc1-c1cc2n(c1)C[C@H](C)n1c-2nnc1C(F)(F)c1ccccc1F` [Compound 295], for which the results for the IC50 (in assay [1]; at MAPK1(ERK2) enzyme) were ≤ 100 nM and 5 to 10 nM, respectively.
Regarding `Cc1cnc(Nc2ccnn2C)cc1-c1cc2n(c1)CC(F)(F)Cn1c-2nnc1C1(C(F)(F)F)CCC1` [Compound 117], the IC50 in assay [1] is ≤ 100 nM; at MAPK1(ERK2) enzyme, ≤ 5 nM.
As for `Cn1nccc1Nc1nccc(-c2cc3c4nnc(COc5ccccc5F)n4ccn3c2)n1` [Compound 2], the IC50 in assay [1] is ≤ 100 nM; at MAPK1(ERK2) enzyme, ≤ 5 nM.
With `Cc1cnc(Nc2ccnn2C)nc1-c1cc2n(c1)C[C@H](C)n1c-2nnc1C(F)(F)n1cc(Cl)cn1` [Compound 102], the half-maximal inhibitory concentration (IC50) was ≤ 100 nM in assay [1] and ≤ 5 nM at MAPK1(ERK2) enzyme.
For `C[C@H]1Cn2cc(-c3ccnc(Nc4ccnn4C)c3)cc2-c2nnc(C(F)(F)c3ccccc3F)n21` [Compound 69], the values for the IC50 (in assay [1]; at MAPK1(ERK2) enzyme) were > 100 nM and ≤ 5 nM, respectively.
The like results for `Cn1nccc1Nc1cc(-c2cc3n(c2)C[C@H](F)Cn2c-3nnc2C2(C(F)(F)F)CCC2)c(Cl)cn1` [Compound 123] were, in that order, ≤ 100 nM and ≤ 5 nM.
The like results for `Cc1cnc(Nc2ccnn2C)cc1-c1cc2n(c1)C[C@H](CF)n1c-2nnc1C(F)(F)c1cc(F)ccc1F` [Compound 183] were, in that order, ≤ 100 nM and ≤ 5 nM.
For `Cc1cnc(Nc2ccnn2CC(F)F)nc1-c1cc2n(c1)C[C@H](C)n1c-2nnc1C(F)(F)c1ccccc1F` [Compound 298] the same measures were ≤ 100 nM and > 10 nM.
For `Cn1nccc1Nc1cc(-c2cc3n(c2)CCn2c(COc4ccccc4F)nnc2-3)c(Cl)cn1` [Compound 23], the results for the IC50 (in assay [1]; on MAPK1(ERK2) enzyme) were ≤ 100 nM and 5 to 10 nM, respectively.
For the compound `Cc1cnc(Nc2ccnn2C)cc1-c1cc2n(c1)CCCn1c-2nnc1C1(C(F)(F)F)CCC1` [Compound 237], the IC50 in assay [1] was ≤ 100 nM; at MAPK1(ERK2) enzyme, ≤ 5 nM.
The like results for `Cc1cnc(Nc2ccnn2C)nc1-c1cc2c3nnc(C4(C(F)F)CCC4)n3ccn2c1` [Compound 45] were, in that order, ≤ 100 nM and ≤ 5 nM.
For `Cc1cnc(Nc2ccnn2C)cc1-c1cc2n(c1)C[C@H](C(F)F)n1c-2nnc1C(F)(F)c1ccccc1Cl` [Compound 204] the same measures were ≤ 100 nM and > 10 nM.
For `Cn1nccc1Nc1cc(-c2cc3n(c2)C[C@H](CF)n2c-3nnc2C(F)(F)c2ccccc2F)c(Cl)cn1` [Compound 190] the same measures were ≤ 100 nM and > 10 nM.
With `Cn1nccc1Nc1cc(-c2cc3n(c2)CC2(CC2)Cn2c-3nnc2C2(C(F)F)CCC2)c(Cl)cn1` [Compound 51], the figures for the IC50 (in assay [1]; at MAPK1(ERK2) enzyme) were ≤ 100 nM and ≤ 5 nM, respectively.
For `Cc1cnc(Nc2ccnn2C)cc1-c1cc2n(c1)C[C@H](CF)n1c-2nnc1C(F)(F)c1ccc(F)c(F)c1` [Compound 181] the same measures were > 100 nM and 5 to 10 nM.
Take `Cc1cnc(N[C@@H](C)CO)nc1-c1cc2n(c1)CCCn1c-2nnc1C1(C(F)(F)F)CCC1` [Compound 275, (S)-2-((5-methyl-4-(3-(1-(trifluoromethyl)cyclobutyl)-6,7-dihydro-5H-pyrrolo[1,2-a][1,2,4]triazolo[3,4-c][1,4]diazepin-10-yl)pyrimidin-2-yl)amino)propan-1-ol]: the results for the concentration for half-maximal inhibition (IC50) (in assay [1]; at MAPK1(ERK2) enzyme) were ≤ 100 nM and ≤ 5 nM, respectively.
For `Cn1nccc1Nc1cc(-c2cc3n(c2)CCCn2c-3nnc2C2(C(F)(F)F)CCC2)c(C(F)(F)F)cn1` [Compound 271] the same measures were ≤ 100 nM and 5 to 10 nM.
The like results for `C[C@H]1Cn2cc(-c3cc(Nc4ccnn4C)ncc3Cl)cc2-c2nnc(C(F)(F)n3cc(F)cn3)n21` [Compound 108] were, in that order, ≤ 100 nM and ≤ 5 nM.
On to `Cn1nccc1Nc1cc(-c2cc3n(c2)[C@H]2CC[C@H](C2)n2c-3nnc2C2(C(F)(F)F)CCC2)c(Cl)cn1` [Compound 267], for which the values for the IC50 (in assay [1]; on MAPK1(ERK2) enzyme) were > 100 nM and > 10 nM, respectively.
